These results are taken from patent US20240109893A1, “PREPARATION AND APPLICATION METHOD OF HETEROCYCLIC COMPOUNDS AS KRAS INHIBITOR” (SHANGHAI KECHOW PHARMA, INC., priority 2020, published 2024).

In one assay the test system is H358 cells. Kind of assay: Cell activity experiment: activity test of H358 cells (MTT, 5 days). The note with it: 5 days incubation, absorbance 492 nm. It is filed as cell-based. In outline:
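H358 cells seeded 90 μL at 55555 cells/mL, grown 24 h, then exposed to 3-fold serial compound dilutions (final top 10000 nM, 0.5% DMSO) in triplicate for 5 days at 37° C., 5% CO2. Viability by MTT (4 h), formazan dissolved in DMSO, absorbance at 492 nm.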

For a further assay, the target named is KRAS G12C-GDP (Homo sapiens (Human), UniProt P01116, G12C). The assay is described as follows: KRAS G12C-GDP exchange test (SOS/cRAF/GTP, HTRF). It is filed as biochemical. The note with it: 1 h premix with compound, 2 h reaction with SOS, cRAF, GTP. The method, then: 2. A mixture of SOS (Pharmaron, ZZY-20190823), cRAF (Pharmaron, ZZY-20190823), GTP (Sigma, A6885-100MG), MAb Anti 6HIS-d2/MAb Anti GST-Eu (Cisbio, 61HISDLB/61GSTKLB) was added for a catalyzed reaction for 2 h.
3. The fluorescence signals of the emitted light at 615 nm and 665 nm under 320 nm excitation light were read by Biotek Microplate Reader (Synergy4).
4. The IC50 (median inhibitory concentration) of the compound was obtained by the following non-linear fitting formula: Y=Bottom+(Top−Bottom)/(1+10^((Log IC50−X)*Hill Slope)), and the data were analyzed by Graphpad 6-0 software.

One may read the IC50 as the concentration at which inhibition is half-maximal. Take “2-((S)-1-acryloyl-4-(6-fluoro-7-(8-chloro-7- fluoronaphthalen-1-yl)-2-(((S)-1-methylpyrrolidin-2- yl))methoxy)quinazolin-4-yl)piperazin-2-yl)acetonitrile [Example 395]”: the figures for the IC50 in the assay on H358 cells and at KRAS G12C-GDP were 61 nM and 1.32 nM, respectively.

Regarding `C=CC(=O)N1CCN(c2nc(OC[C@@H]3CCCN3C)nc3c(F)c(-c4cccc5c4CC4CC54)ncc23)C[C@@H]1CC#N` (single isomer, unassigned) [Example 873], the IC50 amounted to 12 nM with H358 cells and 0.79 nM on KRAS G12C-GDP.

In the case of `C=CC(=O)N1CCN(c2nc(OC[C@@H]3CCCN3C)nc3c(F)c(-c4cccc5c4CC4CC54)ccc23)C[C@@H]1CC#N` (single isomer, unassigned) [Example 881], the IC50 came out at 3.4 nM in the assay on H358 cells and 0.71 nM at KRAS G12C-GDP.

As to `C=C(F)C(=O)N1CCN(c2nc(OC[C@@H]3CCCN3C)nc3c(F)c(-c4cccc5c4CC4CC54)ccc23)C[C@@H]1CC#N` (single isomer, unassigned) [Example 883], the IC50 in the assay on H358 cells turned out to be 10.6 nM; on KRAS G12C-GDP it was 0.49 nM.

Take `C=CC(=O)N1CCN(c2nc(OC[C@@H]3CCCN3C)nc3c(F)c(-c4cccc5c4CCCC5)ncc23)C[C@@H]1CC#N` [Example 1, 2-((S)-1-acryloyl-4-(8-fluoro-2-(((S)-1-methylpyrrolidin-2-yl)methoxy)-7-(5,6,7,8-tetrahydronaphthalen-1-yl)pyridino[4,3-d]pyrimidin-4-yl)piperazin-2-yl)acetonitrile]: the IC50 in the assay with H358 cells (Homo sapiens, NCI-H358, 120 h) came out at 15 nM; at KRAS G12C-GDP, 20.3 nM.

As for `C=CC(=O)N1CCN(c2nc(OCC34CCCN3CCC4)nc3c(F)c(-c4cccc5c4CCCC5)ncc23)C[C@@H]1CC#N` [Example 2, (S)-2-(1-acryloyl-4-(8-fluoro-2-((tetrahydro-1H-pyrrolizin-7a(5H)-yl)methoxy)-7-(5,6,7,8-tetrahydronaphthalen-1-yl)pyridino[4,3-d]pyrimidin-4-yl)piperazin-2-yl)acetonitrile], the IC50 in the assay on H358 cells (Homo sapiens, NCI-H358, 120 h) is 1 nM; on KRAS G12C-GDP, 10.6 nM.

With `C=C(F)C(=O)N1CCN(c2nc(OCC34CCCN3CCC4)nc3c(F)c(-c4cccc5c4CCCC5)ncc23)C[C@@H]1CC#N` [Example 3, (S)-2-(4-(8-fluoro-2-((tetrahydro-1H-pyrrolizin-7a(5H)-yl)methoxy)-7-(5,6,7,8-tetrahydronaphthalen-1-yl)pyridino[4,3-d]pyrimidin-4-yl)-1-(2-fluoroacryloyl)piperazin-2-yl)acetonitrile], the IC50 came out at 3.5 nM in the assay on H358 cells (Homo sapiens, NCI-H358, 120 h) and 13.8 nM on KRAS G12C-GDP.

With `C=C(F)C(=O)N1CC[C@@H]2[C@H]1CN2c1nc(OC[C@@H]2CCCN2C)nc2c(F)c(-c3cccc4c3CCCC4)ncc12` [Example 10, 2-fluoro-1-((1R,5R)-6-(8-fluoro-2-(((S)-1-methylpyrrolidin-2-yl)methoxy)-7-(5,6,7,8-tetrahydronaphthalen-1-yl)pyridino[4,3-d]pyrimidin-4-yl)-2,6-diazabicyclo[3.2.0]hept-2-yl)prop-2-en-1-one], the IC50 in the assay with H358 cells (Homo sapiens, NCI-H358, 120 h) was 60 nM; on KRAS G12C-GDP it was 8 nM.

`C=CC(=O)N1CCN(c2nc(OC[C@@H]3CCCN3C)nc3c(F)c(-c4ccc(F)c5c4CCCC5)ncc23)C[C@@H]1CC#N` [Example 17, 2-((S)-1-acryloyl-4-(8-fluoro-7-(4-fluoro-5,6,7,8-tetrahydronaphthalen-1-yl)-2-(((S)-1-methylpyrrolidin-2-yl)methoxy)pyridino[4,3-d]pyrimidin-4-yl)piperazin-2-yl)acetonitrile]: the IC50 in the assay on H358 cells (Homo sapiens, NCI-H358, 120 h) came out at 30 nM; at KRAS G12C-GDP it was 1.65 nM.

Turning to `C=CC(=O)N1CCN(c2nc(OC[C@@H]3CCCN3C)nc3cc(-c4cccc5cccc(Cl)c45)ccc23)C[C@@H]1CC#N` [Example 73, 2-((S)-1-acryloyl-4-(7-(8-chloronaphthalen-1-yl)-2-(((S)-1-methylpyrrolidin-2-yl)methoxy)quinazolin-4-yl)piperazin-2-yl)acetonitrile], the IC50 was found to be 15 nM with H358 cells (Homo sapiens, NCI-H358, 120 h) and 1.34 nM at KRAS G12C-GDP.

In the case of `C=CC(=O)N1CCN(c2nc(OC[C@@H]3CCCN3C)nc3nc(-c4cccc5cccc(Cl)c45)ccc23)C[C@@H]1CC#N` [Example 254, 2-((S)-1-acryloyl-4-(7-(8-chloronaphthalen-1-yl)-2-(((S)-1-methylpyrrolidin-2-yl)methoxy)pyridino[2,3-d]pyrimidin-4-yl)piperazin-2-yl)acetonitrile], the IC50 with H358 cells (Homo sapiens, NCI-H358, 120 h) was 30 nM; on KRAS G12C-GDP it was 8.9 nM.

Consider `C=CC(=O)N1CCN(c2nc(OC[C@@H]3CCCN3C)nc3nc(-c4cccc5c4CCCC5)ccc23)C[C@@H]1CC#N` [Example 286, 2-((S)-1-acryloyl-4-(2-(((S)-1-methylpyrrolidin-2-yl)methoxy)-7-(5,6,7,8-tetrahydronaphthalen-1-yl)pyridino[2,3-d]pyrimidin-4-yl)piperazin-2-yl)acetonitrile], for which the concentration for half-maximal inhibition (IC50) with H358 cells amounted to 355 nM; at KRAS G12C-GDP it was 9.91 nM.

Consider `C=CC(=O)N1CCN(c2nc(OC[C@@H]3CCCN3C)nc3cc(-c4cccc5cccc(Cl)c45)c(Cl)cc23)C[C@@H]1CC#N` [Example 465, 2-((S)-1-acryloyl-4-(6-chloro-7-(8-chloronaphthalen-1-yl)-2-(((S)-1-methylpyrrolidin-2-yl)methoxy)quinazolin-4-yl)piperazin-2-yl)acetonitrile], for which the IC50 in the assay on H358 cells (Homo sapiens, NCI-H358, 120 h) was found to be 70 nM; on KRAS G12C-GDP, 2.23 nM.

On to `C=CC(=O)N1CCN(c2nc(OC[C@@H]3CCCN3C)nc3cc(-c4cccc5ccc(F)c(Cl)c45)cnc23)C[C@@H]1CC#N` [Example 840, 2-((S)-1-acryloyl-4-(7-(8-chloro-7-fluoronaphthalen-1-yl)-2-(((S)-1-methylpyrrolidin-2-yl)methoxy)pyridino[3,2-d]pyrimidin-4-yl)piperazin-2-yl)acetonitrile], for which the IC50 worked out at 809 nM in the assay on H358 cells (Homo sapiens, NCI-H358, 120 h) and 4.52 nM at KRAS G12C-GDP.

Regarding `C=CC(=O)N1CCN(c2nc(OCC3(CN4CCCC4)CC3)nc3c(F)c(-c4cccc5cccc(Cl)c45)ncc23)C[C@@H]1CC#N` [Example 854, (S)-2-(1-acryloyl-4-(7-(8-chloronaphthalen-1-yl)-8-fluoro-2-((1-(pyrrolidin-1-ylmethyl)cyclopropyl)methoxy)pyridino[4,3-d]pyrimidin-4-yl)piperazin-2-yl)acetonitrile], the IC50 in the assay on H358 cells (Homo sapiens, NCI-H358, 120 h) is 4.4 nM; at KRAS G12C-GDP, 0.59 nM.

The molecule `C=CC(=O)N1CCN(c2nc(OCC3(CN4CCCC4)CC3)nc3c(F)c(-c4cccc5cccc(Cl)c45)ccc23)C[C@@H]1CC#N` [Example 855, (S)-2-(1-acryloyl-4-(7-(8-chloronaphthalen-1-yl)-8-fluoro-2-((1-(pyrrolidin-1-ylmethyl)cyclopropyl)methoxy)quinazolin-4-yl)piperazin-2-yl)acetonitrile] registered an IC50 with H358 cells (Homo sapiens, NCI-H358, 120 h) of 5.1 nM.

In turn, `C=C(F)C(=O)N1CCN(c2nc(OC[C@@H]3CCCN3C)nc3c(F)c(-c4cccc5c4CC4CC54)ccc23)C[C@@H]1CC#N` (stereo partly shown) [Example 872] registered an IC50 in the assay on H358 cells of 8.4 nM.

`C=C(F)C(=O)N1CCN(c2nc(OC[C@@H]3CCCN3C)nc3c(F)c(-c4cccc5ccc(F)c(Cl)c45)ccc23)C[C@@H]1CC#N` [Example 913] came in with a half-inhibitory concentration (IC50) with H358 cells (Homo sapiens, NCI-H358, 120 h) of 3.6 nM.

`C=C(F)C(=O)N1CCN(c2nc(OC[C@@]34CCCN3C[C@H](F)C4)nc3c(OC4CC4)c(-c4cccc5ccc(F)c(Cl)c45)c(Cl)cc23)C[C@@H]1CC#N` [Example 915, 2-((2S)-4-(6-chloro-7-(8-chloro-7-fluoronaphthalen-1-yl)-8-cyclopropoxy-2-((2R,7aS)-2-fluorotetrahydro-1H-pyrrolizin-7a(5H)-ylmethoxy)quinazolin-4-yl)-1-(2-fluoroacryloyl)piperazin-2-yl)acetonitrile]: in the assay on H358 cells (Homo sapiens, NCI-H358, 120 h), 33 nM corresponded to half-maximal inhibition (IC50).

`C=C(F)C(=O)N1CCN(c2nc(OC[C@@]34CCCN3C[C@H](F)C4)nc3c(OC4CC4)c(-c4cccc5cccc(Cl)c45)c(Cl)cc23)C[C@@H]1CC#N` [Example 916] had an IC50 in the assay with H358 cells (Homo sapiens, NCI-H358, 120 h) of 37 nM.

`C=CC(=O)N1CCN(c2nc(OC[C@@]34CCCN3C[C@H](F)C4)nc3c(OC4CC4)c(-c4cccc5ccc(F)c(Cl)c45)c(Cl)cc23)C[C@@H]1CC#N` [Example 920, 2-((2S)-1-acryloyl-4-(6-chloro-7-(8-chloro-7-fluoronaphthalen-1-yl)-8-cyclopropoxy-2-((2R,7aS)-2-fluorotetrahydro-1H-pyrrolizin-7a(5H-yl)methoxy)quinazolin-4-yl)piperazin-2-yl)acetonitrile]: in the assay with H358 cells (Homo sapiens, NCI-H358, 120 h), the IC50 amounted to 31 nM.

The molecule `C=C(F)C(=O)N1CCN(c2nc(OC[C@@H]3CCCN3C)nc3c(OC4CC4)c(-c4cccc5ccc(F)c(Cl)c45)c(Cl)cc23)C[C@@H]1CC#N` [Example 924] yielded an IC50 with H358 cells (Homo sapiens, NCI-H358, 120 h) of 49 nM.

With `C=C(F)C(=O)N1CCN(c2nc(OC[C@@]34CCCN3C[C@H](F)C4)nc3c(OC4CC4)c(-c4c(C)ccc5[nH]ncc45)c(Cl)cc23)C[C@@H]1CC#N` [Example 932, 2-((2S)-4-(6-chloro-8-cyclopropoxy-2-((2R,7aS)-2-fluorotetrahydro-1H-pyrrolizin-7a(5H)-ylmethoxy)-7-(5-methyl-1H-indazol-4-yl)quinazolin-4-yl)-1-(2-fluoroacryloyl)piperazin-2-yl)acetonitrile], the IC50 with H358 cells (Homo sapiens, NCI-H358, 120 h) stood at 0.4 nM.

`C=CC(=O)N1CCN(c2nc(OC[C@@]34CCCN3C[C@H](F)C4)nc3c(OC4CC4)c(-c4c(C)ccc5[nH]ncc45)c(Cl)cc23)C[C@@H]1CC#N` [Example 933] came in with an IC50 in the assay on H358 cells (Homo sapiens, NCI-H358, 120 h) of 0.3 nM.

`C=C(F)C(=O)N1CCN(c2nc(OC[C@@H]3CCCN3C)nc3c(F)c(-c4cccc5c4CC4CC54)c(O)cc23)C[C@@H]1CC#N` (stereo partly shown) [Example 945] registered an IC50 in the assay with H358 cells (Homo sapiens, NCI-H358, 120 h) of 155 nM.
